# Values of other authors, collected in patent publication US9085793B2, “Ex vivo methods to identify circulating drug metabolites with drug interaction potential” (XPD Consulting, LLC, priority 2012, dated 2015).
# Read-outs that look alike come from different tables or passages of the source.
# Key:
# CYP3A [1] = details: CYP 3A; in vivo inhibitory potential of metabolite over that of parent drug
# CYP3A [2] = system: T1, CYP3A; details: CYP 3A; metabolite
# T1 construct: rows headed: Ki Parent Drug (P); other: CYP 3A; parent drug; Ki Metabolite (M); metabolite; [I]/Ki Parent Drug (P); [I]/Ki Metabolite (M)
# CYP2D6 [3] = biological target: T2, CYP2D6 (Homo sapiens, UniProt P10635); details: CYP 2D6; for IPM/IPP: in vivo inhibitory potential of metabolite over that of parent drug; for Ki: read-out: Ki Metabolite, metabolite
# CYP2C9 [4] = biological target: T3, CYP2C9 (Homo sapiens, UniProt P11712)
# CYP2C9 [5] = biological target: T3, CYP2C9; details: read-out: Ki Metabolite, CYP 2C9
# CYP2C9 [6] = biological target: T3, CYP2C9; remark: listed apart in the source
# CYP2D6 [7] = biological target: T2, CYP2D6; details: human hepatocytes
# [8] = in vivo
# CYP3A4 = CYP3A4 (Homo sapiens, UniProt P08684); details: human hepatocytes
# CYP2D6 [9] = biological target: T2, CYP2D6; details: human liver microsomes
# [10] = circulating plasma level (in vivo concentration) of metabolite
# T3 sequence (P11712 whole entry): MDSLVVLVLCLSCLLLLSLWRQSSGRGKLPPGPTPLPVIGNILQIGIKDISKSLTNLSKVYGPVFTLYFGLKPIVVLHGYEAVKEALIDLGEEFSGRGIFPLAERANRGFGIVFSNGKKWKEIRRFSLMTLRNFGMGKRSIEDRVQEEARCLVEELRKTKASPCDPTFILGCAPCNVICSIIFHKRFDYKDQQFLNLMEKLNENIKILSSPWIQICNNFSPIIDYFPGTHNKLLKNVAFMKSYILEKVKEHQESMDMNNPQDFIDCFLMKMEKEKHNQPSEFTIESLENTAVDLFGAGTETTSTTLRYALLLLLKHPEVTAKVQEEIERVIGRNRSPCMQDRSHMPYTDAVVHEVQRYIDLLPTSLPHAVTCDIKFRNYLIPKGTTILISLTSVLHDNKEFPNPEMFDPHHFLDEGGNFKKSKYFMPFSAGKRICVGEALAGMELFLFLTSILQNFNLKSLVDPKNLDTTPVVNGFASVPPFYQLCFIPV
# Chain of CYP3A4 (P08684 whole entry): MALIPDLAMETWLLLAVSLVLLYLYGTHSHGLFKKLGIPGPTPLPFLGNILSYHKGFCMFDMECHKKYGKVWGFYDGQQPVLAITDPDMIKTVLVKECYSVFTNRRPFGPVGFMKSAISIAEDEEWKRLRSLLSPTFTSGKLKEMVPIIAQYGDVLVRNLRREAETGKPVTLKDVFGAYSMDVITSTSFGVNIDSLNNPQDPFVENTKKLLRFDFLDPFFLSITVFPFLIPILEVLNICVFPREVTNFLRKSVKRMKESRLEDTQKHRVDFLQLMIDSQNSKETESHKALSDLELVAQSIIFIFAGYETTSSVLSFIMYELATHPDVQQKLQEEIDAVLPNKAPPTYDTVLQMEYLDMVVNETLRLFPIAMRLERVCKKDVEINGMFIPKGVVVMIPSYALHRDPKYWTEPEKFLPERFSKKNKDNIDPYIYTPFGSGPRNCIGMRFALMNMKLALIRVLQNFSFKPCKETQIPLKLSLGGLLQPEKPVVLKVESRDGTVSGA
# T2 sequence (P10635 whole entry): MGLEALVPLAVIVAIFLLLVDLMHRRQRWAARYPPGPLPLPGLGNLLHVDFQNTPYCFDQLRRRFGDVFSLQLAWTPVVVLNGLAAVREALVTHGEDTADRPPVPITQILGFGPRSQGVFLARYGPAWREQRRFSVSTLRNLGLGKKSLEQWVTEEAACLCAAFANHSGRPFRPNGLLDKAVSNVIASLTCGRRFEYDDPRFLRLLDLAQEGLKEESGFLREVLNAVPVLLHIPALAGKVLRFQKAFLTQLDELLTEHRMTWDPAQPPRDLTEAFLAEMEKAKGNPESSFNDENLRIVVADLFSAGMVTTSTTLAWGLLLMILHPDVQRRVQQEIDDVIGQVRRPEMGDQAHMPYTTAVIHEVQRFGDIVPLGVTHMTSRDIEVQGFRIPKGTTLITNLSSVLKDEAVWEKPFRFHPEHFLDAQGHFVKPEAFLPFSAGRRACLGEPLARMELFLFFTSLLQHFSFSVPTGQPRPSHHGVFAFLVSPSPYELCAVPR
smiles,measurement,setting,value
Cc1nc2n(c(=O)c1CCN1CCC(c3noc4cc(F)ccc34)CC1)CCCC2O (centres unmarked) [Paliperidone],IPM/IPP,CYP3A [1],2.0
same,Ki,CYP3A [2],80 µM
same,IPM/IPP,CYP2D6 [3],1.0
same,Ki,CYP2D6 [3],16 µM
same,[I] Metabolite (M),[10],4.6e-08 M
Clc1ccc(COC(Cn2ccnc2)c2ccc(Cl)cc2Cl)c(Cl)c1 (centres unmarked) [Miconazole],IC50,CYP2C9 [4],2.02 ± 0.37 µM
same,IC50,CYP2C9 [4]; hepatocytes,2.12 ± 0.37 µM
O=C1C(CCSc2ccccc2)C(=O)N(c2ccccc2)N1c1ccccc1 [Sulfinpyrazone sulfide],Ki,CYP2C9 [5],27 µM
O=C(O)Cc1ccccc1Nc1c(Cl)cccc1Cl [Diclofenac],"Increase in Km on adding plasma (in words, FIG. 6)",CYP2C9 [6],relatively large increase in Km
same,Increase in Km on addition of plasma,CYP2C9 [6],more than 40 fold
CN[C@H]1CC[C@@H](c2ccc(Cl)c(Cl)c2)c2ccccc21 [Sertraline],IC50,"CYP2D6 [7]; human plasma, read-out: IC50 Plasma",13.1 ± 3.49 µM
same,IC50,"CYP2D6 [7]; medium, read-out: IC50 Medium",3.1 ± 0.34 µM
CCCCc1oc2ccccc2c1C(=O)c1cc(I)c(OCCNCC)c(I)c1 [N-Desethylamiodarone],[I] Metabolite (M),in vivo,1.5e-06 M
C[C@H]1NC(C)(C)CO[C@]1(O)c1cccc(Cl)c1 [Hydroxybupropion],IPM/IPP,CYP2D6 [3],17.0
same,Ki,CYP2D6 [3],13 µM
same,[I] Metabolite (M),[10],3.2e-06 M
CNCCC(Oc1ccc(C(F)(F)F)cc1)c1ccccc1 (centres unmarked) [Fluoxetine],Plasma half-life,[8],96 to 140 h
NCCC(Oc1ccc(C(F)(F)F)cc1)c1ccccc1 (centres unmarked) [Norfluoxetine],Ki,CYP2D6 [3],0.2 µM
same,Plasma half-life,[8],about 16 days
CC(C)c1c(C(=O)Nc2ccccc2)c(-c2ccccc2)c(-c2ccc(F)cc2)n1CC[C@@H]1C[C@@H](O)CC(=O)O1 [Atorvastatin lactone],IPM/IPP,CYP3A [1],5.5
same,Ki,CYP3A [2],0.9 µM
same,[I] Metabolite (M),[10],3e-09 M
Cc1ncc2n1-c1ccc(Cl)cc1C(c1ccccc1F)=NC2 [Midazolam],Increase in Km,CYP3A4; plasma versus medium,5.7 fold
same,Km,"CYP3A4; read-out: Km Medium, cell culture medium (HMM)",8.11 ± 0.65 µM
same,Km,"CYP3A4; read-out: Km Plasma, human plasma",45.8 ± 4.38 µM
OC(CCCN1CCC(O)(c2ccc(Cl)cc2)CC1)c1ccc(F)cc1 (centres unmarked) [Reduced haloperidol],IPM/IPP,CYP2D6 [3],1.3
same,Ki,CYP2D6 [3],0.24 µM
same,[I] Metabolite (M),[10],8e-09 M
CC(NC(C)(C)C)C(O)c1cccc(Cl)c1 (centres unmarked) [Erythrobupropion],IPM/IPP,CYP2D6 [3],15.3
same,Ki,CYP2D6 [3],1.7 µM
same,[I] Metabolite (M),[10],3.7e-07 M
CNCC(c1ccc(OC)cc1)C1(O)CCCCC1 (centres unmarked) [N-Desmethylvenlafaxine],[I] Metabolite (M),in vivo,9.3e-07 M
COc1ccc2c(c1)[C@]13CCCC[C@@H]1[C@H](C2)N(C)CC3 [dextromethorphan],"Increase in Km on adding plasma (in words, FIG. 6)",CYP2D6 [9],relatively small increase in Km
same,Increase in Km on addition of plasma,CYP2D6 [9],less than six
CCNCc1cc(Nc2ccnc3cc(Cl)ccc23)ccc1O [Desethylamodiaquine],IPM/IPP,CYP2D6 [3],5.1
same,Ki,CYP2D6 [3],4.1 µM
same,[I] Metabolite (M),[10],8.2e-07 M
C[C@H](NC(C)(C)C)[C@@H](O)c1cccc(Cl)c1 [Threobupropion],IPM/IPP,CYP2D6 [3],24.8
same,Ki,CYP2D6 [3],5.4 µM
same,[I] Metabolite (M),[10],1.9e-06 M
CNCCCN1c2ccccc2CCc2ccc(Cl)cc21 [N-Desmethylclomipramine],IPM/IPP,CYP2D6 [3],4.2
same,Ki,CYP2D6 [3],7.9 µM
same,[I] Metabolite (M),in vivo,4.9e-07 M
Nc1ccc(S(=O)(=O)Nc2ccnn2-c2ccccc2)cc1 [Sulfaphenazole],IC50 increased on addition of plasma,CYP2C9 [4]; addition of plasma to human hepatocytes or human liver microsomes,more than 10 fold
